# Like-named read-outs stand apart in the source and are kept apart here.
# Assays:
# E. coli ATCC 25922 [1] = assay: MIC by broth microdilution, E. coli ATCC 25922; format: cell-based; settings: E. coli (ATCC 25922); for MIC, Antibiotic +NH2-triguan-6C / MIC, Antibiotic +NO2-triamine-2C / MIC, Antibiotic +NO2-triamine-6C: non-covalent mixture
# Description: (§1) Methods—Determination of MICs: MICs for S. aureus, E. faecium, E. coli, P aeruginosa, A. baumannii, K. pneumoniae were determined using broth microdilution in accordance with CLSI methods (Wiegand, I.; Hilpert, K.; Hancock, R. E. W. Agar and Broth Dilution Methods to Determine the Minimal Inhibitory Concentration (MIC) of Antimicrobial Substances. Nat. Protoc. 2008, 3, 163-175). One day prior to each MIC experiment, bacterial strains were streaked for single colonies on TSA plates from frozen glycerol stocks stored at −80° C. Three to five colonies from each plate were harvested with a disposable inoculating loop and resuspended in 500 μL of PBS to create a bacterial suspension. Alternatively, a single colony of the appropriate bacterial strain was added to 4 mL TSB for overnight growth at 37° C. with 200 rpm shaking to create a stationary phase bacterial suspension. The suspension was diluted in PBS to an OD600 of 0.1 (˜[…] CFU/ml), and the OD 0.1 suspension was diluted 1:100 in Mueller Hinton broth (MHB, Difco 257530) just prior to inoculating the 96-well polypropylene treatment plate (Costar 3879). A 50 μL portion of inoculum was added to a treatment plate containing 2-fold serial dilutions of compound in MHB (50 μL of treatment/well) to lend a final total volume of 100 μL/well and a final inoculum density of ˜5×10^5 CFU/ml. The completed assay plate was sealed with Parafilm, placed in a lidded plastic tray lined with moistened paper towels, and incubated at 37° C. for approximately 20 hours. The MIC was read as the lowest treatment concentration where no bacterial growth occurred, as determined by OD600 measurements on a microplate reader. If a different plate or media type was used for a particular test, this is noted below the respective table.
# E. coli ATCC 25922 [2] = settings: cited from earlier work
# S. aureus ATCC 29213 [3] = assay: MIC by broth microdilution, S. aureus ATCC 29213; format: cell-based; settings: S. aureus (ATCC 29213); for MIC, Antibiotic +NH2-triguan-6C / MIC, Antibiotic +NO2-triamine-2C / MIC, Antibiotic +NO2-triamine-6C: non-covalent mixture; for MIC: Staphylococcus aureus, ATCC29213, 20 h, read-out: MIC, Antibiotic Alone
# Description: as §1
# S. aureus ATCC 29213 [4] = settings: cited from earlier work
# [5] = Mueller Hinton Broth, polypropylene plate
# [6] = cation-adjusted MHB2 supplemented
# [7] = cation-adjusted MHB2 supplemented with 50 g/L Ca2+
Compound,"MIC, Antibiotic Alone (E. coli ATCC 25922 [1])","MIC, Antibiotic +NH2-triguan-6C (E. coli ATCC 25922 [1])","MIC, Antibiotic +NO2-triamine-2C (E. coli ATCC 25922 [1])","MIC, Antibiotic +NO2-triamine-6C (E. coli ATCC 25922 [1])",Literature MIC (E. coli ATCC 25922 [2]),"MIC, Antibiotic +NH2-triguan-6C (S. aureus ATCC 29213 [3]; [5])","MIC, Antibiotic +NO2-triamine-2C (S. aureus ATCC 29213 [3]; [5])","MIC, Antibiotic +NO2-triamine-6C (S. aureus ATCC 29213 [3]; [5])",MIC (S. aureus ATCC 29213 [3]; [5]),Literature MIC (S. aureus ATCC 29213 [4]),"MIC, Antibiotic +NH2-triguan-6C (S. aureus ATCC 29213 [3]; [6])","MIC, Antibiotic +NO2-triamine-2C (S. aureus ATCC 29213 [3]; [7])","MIC, Antibiotic +NO2-triamine-6C (S. aureus ATCC 29213 [3]; [7])",MIC (S. aureus ATCC 29213 [3]; [6])
CC1(C)S[C@@H]2[C@H](NC(=O)[C@H](N)c3ccccc3)C(=O)N2[C@H]1C(=O)O [Ampicillin],16 µM,16 µM,16 µM,16 µM,5 to 22 µM,4 µM,4 µM,4 µM,2 µM,1.4 µM,–,–,–,–
CC[C@H]1OC(=O)[C@H](C)[C@@H](O[C@H]2C[C@@](C)(OC)[C@@H](O)[C@H](C)O2)[C@H](C)[C@@H](O[C@@H]2O[C@H](C)C[C@H](N(C)C)[C@H]2O)[C@](C)(O)C[C@@H](C)CN(C)[C@H](C)[C@@H](O)[C@]1(C)O [Azithromycin],–,–,–,–,–,2 µM,2 µM,2 µM,2 µM,0.64 to 2.5 µM,–,–,–,–
O=C(N[C@H](CO)[C@H](O)c1ccc([N+](=O)[O-])cc1)C(Cl)Cl [Chloramphenicol],16 µM,16 µM,16 µM,16 µM,6 to 25 µM,32 µM,32 µM,32 µM,32 µM,6 to 50 µM,–,–,–,–
O=C(O)c1cn(C2CC2)c2cc(N3CCNCC3)c(F)cc2c1=O [Ciprofloxacin],–,–,–,–,–,–,–,–,–,0.4 to 1.5 µM,–,–,–,–
CCCCCCCCCC(=O)N[C@@H](Cc1c[nH]c2ccccc12)C(=O)N[C@H](CC(N)=O)C(=O)N[C@@H](CC(=O)O)C(=O)N[C@@H]1C(=O)NCC(=O)N[C@@H](CCCN)C(=O)N[C@@H](CC(=O)O)C(=O)N[C@H](C)C(=O)N[C@@H](CC(=O)O)C(=O)NCC(=O)N[C@H](CO)C(=O)N[C@@H]([C@H](C)CC(=O)O)C(=O)N[C@@H](CC(=O)c2ccccc2N)C(=O)O[C@@H]1C [Daptomycin],–,–,–,–,–,–,–,–,–,0.077 to 0.62 µM,0.5 µM,0.5 µM,0.5 µM,0.5 µM
C[C@@H](O)[C@H]1C(=O)N2C(C(=O)O)=C(S[C@@H]3CN[C@H](C(=O)N(C)C)C3)[C@H](C)[C@H]12 [Meropenem],–,–,–,–,–,0.125 µM,0.125 µM,0.125 µM,0.125 µM,0.08 to 0.65 µM,–,–,–,–
